Measurements taken from US20180015100A1, “COMBINATION PRODUCTS FOR THE TREATMENT OF BACTERIAL INFECTIONS AND METHODS OF PRODUCING OR DOSING OF SAME” (priority 2016, published 2018).
≈ marks a conversion by molar mass, not a printed value. Read-outs that look alike come from different tables or passages of the source.

Tests used:
[1] = system: ESBL-producing Enterobacteriaceae isolates (panel of nineteen); assay: MIC of cephalosporins alone or with clavulanate/tazobactam, whole panel; format: cell-based; conditions: cephalosporin alone
[2] = system: Enterobacter cloacae isolates; assay: MIC of cephalosporins alone or with clavulanate/tazobactam; format: cell-based; conditions: clavulanate 2:1, tazobactam 4 μg/mL
[3] = system: Escherichia coli isolates; assay: as above; format: cell-based; conditions: clavulanate 2:1, tazobactam 4 μg/mL
[4] = system: Klebsiella pneumoniae isolates; assay: as above; format: cell-based; conditions: clavulanate 2:1, tazobactam 4 μg/mL
[5] = system: ESBL Escherichia coli isolates; assay: Killing kinetics (time-kill); format: cell-based; conditions: 4X MIC of CTB+CLA
[6] = system: ESBL Klebsiella pneumoniae isolates; assay: Killing kinetics (time-kill); format: cell-based; conditions: 4X MIC of CTB+CLA
[7] = system: ESBL Escherichia coli isolates; assay: MIC against isolates analyzed in time-kill experiments; format: cell-based
[8] = system: ESBL Klebsiella pneumoniae isolates; assay: as above; format: cell-based
[9] = system: Francisella tularensis ShuS4; assay: microbe, parasite or virus in culture; format: cell-based
[10] = system: Burkholderia mallei China7; assay: microbe, parasite or virus in culture; format: cell-based
[11] = system: Burkholderia pseudomallei 1026b; assay: microbe, parasite or virus in culture; format: cell-based
E. coli (ATCC 25922) = assay: One-compartment in vitro chemostat infection model, ceftibuten alone; format: cell-based
Description: Becton, Dickinson and Company, Sparks, Md.) and placed in a water bath at 35° C. Magnetic stirrers were used for consistent mixing of the contents during the experiment. […] For each drug exposure/bacteria combination, the experiment was conducted over 24 hours and consisted of a drug free control and two experimental (i.e., drug containing) replicate models. Data from the two replicate models were treated as independent exposures given there is some expected variability in obtained concentrations due to small inconsistencies in volume flows between the chemostat models. A peristaltic pump (Masterflex L/S model 7524-40; Cole-Parmer, Vernon Hills, Ill.) was set to infuse CAMHB into the models at a desired elimination rate for the drug. Broth samples were collected from the model throughout the experiment to determine free drug concentrations and bacterial density. Antibiotic carryover was minimized by serial dilution of samples. Bacterial density was counted after 18-24 hours incubation at 37° C. […] Time-kill curves were constructed by plotting the log10 CFU/mL against time. […] The control models served to define 0% fT>MIC results. […] Drug concentrations were assessed at the peak and trough of each administered dose to achieve the desired exposure and at least one other midpoint concentration for each interval. […] The change in log10 CFU/ml at 24 hours was the primary endpoint for exposure response relationship. […] Mountain View, Calif.).

[12] = system: beta-lactamase producing E. coli (CTX-M-55; CTX-M-15, TEM-OSBL); assay: microbe, parasite or virus in culture; format: cell-based
[13] = system: beta-lactamase producing K. pneumoniae; assay: In vitro chemostat model, clavulanate exposures with fixed ceftibuten exposure; format: cell-based
CTX-M-15 [14] = target: T1, CTX-M-15 (Escherichia coli, UniProt Q9EXV5); format: biochemical
CTX-M-15 [15] = target: T1, CTX-M-15; assay: Competition assay with nitrocefin (IC50); format: biochemical
[16] = system: E. coli clinical isolate expressing the ESBL CTX-M-15; format: in vivo, mouse; conditions: 0.5-4 mg/kg q4 hr s.c. for 3 days
CTX-M-15 Strain = assay: MIC of cephalosporins without and with CLV (Table 16); format: cell-based
[17] = In vivo drug-drug interaction, plasma pharmacokinetics after oral bolus; conditions: rat, oral 34.5 mg/kg ceftibuten ± 10.8 mg/kg clavulanate
[18] = sub-saturating conditions, simulated from measured kinetic constants

T1 sequence (Q9EXV5 entry or part of it): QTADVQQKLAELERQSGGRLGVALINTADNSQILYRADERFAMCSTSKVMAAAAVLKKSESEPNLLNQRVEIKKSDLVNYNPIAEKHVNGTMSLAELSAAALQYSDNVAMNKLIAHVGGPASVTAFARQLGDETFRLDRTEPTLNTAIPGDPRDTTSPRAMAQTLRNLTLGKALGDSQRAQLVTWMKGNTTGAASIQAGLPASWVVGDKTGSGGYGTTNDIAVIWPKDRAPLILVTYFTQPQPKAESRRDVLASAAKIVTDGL

For `Nc1nc(/C(=C/CC(=O)O)C(=O)N[C@@H]2C(=O)N3C(C(=O)O)=CCS[C@H]23)cs1` [Ceftibuten, ceftibuten], the “ESBL-producing isolates with MIC<8 μg/mL” value ([1]; 19 isolates) was 10 of 19, the “MICs relative to CLSI/EUCAST MIC breakpoints for the approved dosing regimens” value ([1]; ESBL-producing Enterobacteriaceae) was “above the CLSI/EUCAST” and the MIC ([2]; AECL1065 (CTX-M-15)) was over 64 µg/mL. It also gave an MIC ([2]; AECL1067 (CTX-M-3)) of 32 µg/mL, an MIC ([3]; AECO001 (no ESBL)) of 0.5 µg/mL and an MIC ([3]; AECO1078 (CTX-M-15)) of 32 µg/mL. The MIC ([3]; AECO1147 (CTX-M-15)) was 4 µg/mL, the MIC ([3]; AECO1157 (CTX-M-15, TEM-OSBL)) was 8 µg/mL and the MIC ([3]; AECO1159 (CTX-M-15)) was 16 µg/mL. The MIC ([3]; AECO1169 (CTX-M-1, TEM-OSBL)) was 1 µg/mL, the MIC ([3]; AECO1172 (CTX-M-14)) was 2 µg/mL and the MIC ([4]; AKPN1159 (SHV-12)) was 4 µg/mL. It also gave an MIC ([4]; AKPN1161 (SHV-7)) of 2 µg/mL, an MIC ([4]; AKPN1162 (CTX-M-15, SHV-12)) of 32 µg/mL and an MIC ([4]; AKPN1166 (CTX-M-14, SHV-12)) of 4 µg/mL. The MIC ([4]; AKPN1167 (SHV-2)) was 2 µg/mL, the “Change in Log10 CFU/mL From Inoculum (0 hr)” value ([5]; AECO1156, 2 h) was 0.33 Log10 CFU/mL and the “Change in Log10 CFU/mL From Inoculum (0 hr)” value ([5]; AECO1156, 4 h) was 2.35 Log10 CFU/mL. For the same compound, the “Change in Log10 CFU/mL From Inoculum (0 hr)” value ([5]; AECO1156, 6 h) was 3.28 Log10 CFU/mL, the “Change in Log10 CFU/mL From Inoculum (0 hr)” value ([5]; AECO1156, 24 h) was 3.98 Log10 CFU/mL and the “Change in Log10 CFU/mL From Inoculum (0 hr)” value ([5]; AECO1157, 2 h) was 1.02 Log10 CFU/mL. The “Change in Log10 CFU/mL From Inoculum (0 hr)” value ([5]; AECO1157, 4 h) was 2.88 Log10 CFU/mL, the “Change in Log10 CFU/mL From Inoculum (0 hr)” value ([5]; AECO1157, 6 h) was 3.29 Log10 CFU/mL and the “Change in Log10 CFU/mL From Inoculum (0 hr)” value ([5]; AECO1157, 24 h) was 3.63 Log10 CFU/mL. For the same compound, the “Change in Log10 CFU/mL From Inoculum (0 hr)” value ([5]; AECO1162, 2 h) was −0.36 Log10 CFU/mL, the “Change in Log10 CFU/mL From Inoculum (0 hr)” value ([5]; AECO1162, 4 h) was 0.17 Log10 CFU/mL and the “Change in Log10 CFU/mL From Inoculum (0 hr)” value ([5]; AECO1162, 6 h) was 2.19 Log10 CFU/mL. The “Change in Log10 CFU/mL From Inoculum (0 hr)” value ([5]; AECO1162, 24 h) was 3.46 Log10 CFU/mL, the “Change in Log10 CFU/mL From Inoculum (0 hr)” value ([5]; AECO1166, 2 h) was −1.30 Log10 CFU/mL and the “Change in Log10 CFU/mL From Inoculum (0 hr)” value ([5]; AECO1166, 4 h) was 0.58 Log10 CFU/mL. The “Change in Log10 CFU/mL From Inoculum (0 hr)” value ([5]; AECO1166, 6 h) was 2.24 Log10 CFU/mL, the “Change in Log10 CFU/mL From Inoculum (0 hr)” value ([5]; AECO1166, 24 h) was 3.71 Log10 CFU/mL and the “Change in Log10 CFU/mL From Inoculum (0 hr)” value ([6]; AKPN1159, 2 h) was 0.65 Log10 CFU/mL. For the same compound, the “Change in Log10 CFU/mL From Inoculum (0 hr)” value ([6]; AKPN1159, 4 h) was 2.37 Log10 CFU/mL, the “Change in Log10 CFU/mL From Inoculum (0 hr)” value ([6]; AKPN1159, 6 h) was 3.01 Log10 CFU/mL and the “Change in Log10 CFU/mL From Inoculum (0 hr)” value ([6]; AKPN1159, 24 h) was 3.71 Log10 CFU/mL. The “Change in Log10 CFU/mL From Inoculum (0 hr)” value ([6]; AKPN1162, 2 h) was 1.57 Log10 CFU/mL, the “Change in Log10 CFU/mL From Inoculum (0 hr)” value ([6]; AKPN1162, 4 h) was 2.76 Log10 CFU/mL and the “Change in Log10 CFU/mL From Inoculum (0 hr)” value ([6]; AKPN1162, 6 h) was 2.96 Log10 CFU/mL. For the same compound, the “Change in Log10 CFU/mL From Inoculum (0 hr)” value ([6]; AKPN1162, 24 h) was 3.55 Log10 CFU/mL, the MIC ([7]; AECO1156 (CTXM-15, TEM-OSBL)) was 16 µg/mL (≈ 39 µM) and the MIC ([7]; AECO1157 (CTXM-15, TEM-OSBL)) was 8 µg/mL (≈ 19.5 µM). It also gave an MIC ([7]; AECO1162 (CTX-M-14)) of 8 µg/mL (≈ 19.5 µM), an MIC ([7]; AECO1166 (SHV-12)) of 2 µg/mL (≈ 4.87 µM) and an MIC ([8]; AKP1162 (SHV-12, CTX-M-15)) of 32 µg/mL (≈ 78 µM). For the same compound, the MIC ([8]; AKPN1159 (SHV-12)) was 4 µg/mL (≈ 9.75 µM), the MIC [9] was 0.25 µg/mL (≈ 0.609 µM) and the MIC [10] was 1 to 2 µg/mL (≈ 2.44 to 4.87 µM). For the same compound, the MIC [11] was 8 µg/mL (≈ 19.5 µM), the “fT > MIC for 1-log CPU reduction” value (E. coli (ATCC 25922); 24 hours, Emax model) was 58.5% and the “fT > MIC for 2-log CPU reduction” value (E. coli (ATCC 25922); 24 hours, Emax model) was 66.0%. The “fT > MIC for Stasis” value (E. coli (ATCC 25922); 24 hours, Emax model) was 53.7%, the MIC (E. coli (ATCC 25922); Escherichia coli, ATCC25922) was 0.25 µg/mL and the MIC ([12]; E. coli CTX-M-15, TEM-OSBL) was over 64 µg/mL. It also gave an MIC ([12]; E. coli CTX-M-55, listed as CTB) of over 64 µg/mL, an MIC ([12]; Escherichia coli, E. coli CTX-M-55, read-out: MIC) of over 64 µg/mL and an MIC ([13]; K. pneumoniae CTX-M-14, SHV-12) of 16 µg/mL. For the same compound, the MIC ([13]; K. pneumoniae CTX-M-15, SHV-12) was over 64 µg/mL, the “concentration saturating CTX-M-15 activity” value (CTX-M-15 [14]; direct-turnover assay) was “did not saturate CTX-M-15 activity” and the Km (CTX-M-15 [14]; read-out: KM (95% CI), CTX-M-15-mediated hydrolysis) was over 100 µM. For the same compound, the “fold slower degradation by CTX-M-15 than cefixime” value (CTX-M-15 [14]; [18]) was “about 2.5 fold”, the “fold slower degradation by CTX-M-15 than cefotaxime” value (CTX-M-15 [14]; [18]) was about 70 fold and the “fold slower degradation by CTX-M-15 than cefpodoxime” value (CTX-M-15 [14]; [18]) was about 67 fold. For the same compound, the IC50 (CTX-M-15 [15]) was over 1 mM, the IC50 (CTX-M-15 [15]; read-out: IC50 (95% CI), competition with nitrocefin) was over 1 mM and the “bacterial titers, bladder” value [16] was 4.06-4.58 log10 CFU. For the same compound, the “bacterial titers, kidneys” value [16] was 4.26-5.83 log10 CFU, the “bacterial titers, urine” value [16] was 3.62-4.81 log10 CFU and the “reduction of bacterial titers relative to untreated control, bladder” value [16] was 2.8-3.35 log10 CFU. For the same compound, the “reduction of bacterial titers relative to untreated control, kidneys” value [16] was 0.6-2.17 log10 CFU, the “reduction of bacterial titers relative to untreated control, urine” value [16] was 2.46-3.65 log10 CFU and the MIC (CTX-M-15 Strain; read-out: MIC CTX-M-15 Strain − CLV) was 16 µg/mL. The “MIC CTX-M-15 Strain + CLV” value (CTX-M-15 Strain; with CLV) was 1 µg/mL and the “effect of the combination on plasma concentration of ceftibuten vs ceftibuten alone” value [17] was “did not markedly alter”.
